In PubChem BioAssay AID2060619 (Molecular Pharmacology Branch, DTP, NCI, 2025):

Test system: 323965-272-R-J2-PDC complex spheroid viability
Assay: Anticancer human tumor 323965-272-R-J2-PDC patient-derived pancreatic carcinoma cell line growth inhibition [CLK]
Conditions: for IC50: curve of first compound; for viability, T/C: stronger effect = lower value
Summary of the method: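 Multi-cell-type spheroids combined patient-derived tumor cells with HUVEC endothelial cells and human mesenchymal stem cells. Paired agents were dosed in half-log steps down from about clinical Cmax, or from 10 microM where Cmax was unknown.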
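Also: spheroids exposed to agents for seven days before readout.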
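For viability, T/C in this document: percent of DMSO vehicle control wells so 100% = untreated growth.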

Structure (SMILES): CC1COCCN1c1cc(C2(S(C)(=N)=O)CC2)nc(-c2ccnc3[nH]ccc23)n1 (centres undefined) + CNC(=O)c1ccc(Nc2nc(OC3CCCC3)c3c(-c4ccc5nc(C)oc5c4)c[nH]c3n2)c(OC)c1
- IC50 (second compound 0.0316 µM): 2100 nM
- IC50 (second compound 0.1 µM): 1680 nM
- IC50 (second compound 0.316 µM): 1180 nM
- IC50 (second compound 1 µM): < 31.6 nM
- IC50 (second compound 3.16 µM): < 31.6 nM
- IC50 (second compound 10 µM): < 31.6 nM
- viability, T/C (second compound 0.0316 µM, first compound 0.0316 µM): 109%
- viability, T/C (second compound 0.0316 µM, first compound 0.1 µM): 106%
- viability, T/C (second compound 0.0316 µM, first compound 0.316 µM): 90.7%
- viability, T/C (second compound 0.0316 µM, first compound 1 µM): 70.1%
- viability, T/C (second compound 0.0316 µM, first compound 3.16 µM): 38.2%
- viability, T/C (second compound 0.0316 µM, first compound 10 µM): 25.6%
- viability, T/C (second compound 0.1 µM, first compound 0.0316 µM): 94%
- viability, T/C (second compound 0.1 µM, first compound 0.1 µM): 93.8%
- viability, T/C (second compound 0.1 µM, first compound 0.316 µM): 64.2%
- viability, T/C (second compound 0.1 µM, first compound 1 µM): 64.2%
- viability, T/C (second compound 0.1 µM, first compound 3.16 µM): 37.8%
- viability, T/C (second compound 0.1 µM, first compound 10 µM): 33.9%
- viability, T/C (second compound 0.316 µM, first compound 0.0316 µM): 58.5%
- viability, T/C (second compound 0.316 µM, first compound 0.1 µM): 61.5%
- viability, T/C (second compound 0.316 µM, first compound 0.316 µM): 61.2%
- viability, T/C (second compound 0.316 µM, first compound 1 µM): 51.1%
- viability, T/C (second compound 0.316 µM, first compound 3.16 µM): 37.4%
- viability, T/C (second compound 0.316 µM, first compound 10 µM): 27.7%
- viability, T/C (second compound 1 µM, first compound 0.0316 µM): 43.4%
- viability, T/C (second compound 1 µM, first compound 0.1 µM): 48.9%
- viability, T/C (second compound 1 µM, first compound 0.316 µM): 40.7%
- viability, T/C (second compound 1 µM, first compound 1 µM): 33.8%
- viability, T/C (second compound 1 µM, first compound 3.16 µM): 24%
- viability, T/C (second compound 1 µM, first compound 10 µM): 18.7%
- viability, T/C (second compound 3.16 µM, first compound 0.0316 µM): 41.7%
- viability, T/C (second compound 3.16 µM, first compound 0.1 µM): 36.9%
- viability, T/C (second compound 3.16 µM, first compound 0.316 µM): 39.2%
- viability, T/C (second compound 3.16 µM, first compound 1 µM): 31.5%
- viability, T/C (second compound 3.16 µM, first compound 3.16 µM): 24.1%
- viability, T/C (second compound 3.16 µM, first compound 10 µM): 18.7%
- viability, T/C (second compound 10 µM, first compound 0.0316 µM): 46.8%
- viability, T/C (second compound 10 µM, first compound 0.1 µM): 42.6%
- viability, T/C (second compound 10 µM, first compound 0.316 µM): 38.5%
- viability, T/C (second compound 10 µM, first compound 1 µM): 28.5%
- viability, T/C (second compound 10 µM, first compound 3.16 µM): 22%
- viability, T/C (second compound 10 µM, first compound 10 µM): 16.8%

Structure (SMILES): NC(=O)C(=Cn1cnc(-c2cc(C(F)(F)F)cc(C(F)(F)F)c2)n1)c1cncnc1 + CNC(=O)c1ccc(Nc2nc(OC3CCCC3)c3c(-c4ccc5nc(C)oc5c4)c[nH]c3n2)c(OC)c1
- IC50 (second compound 0.0316 µM): 1070 nM
- IC50 (second compound 0.1 µM): 1270 nM
- IC50 (second compound 0.316 µM): 655 nM
- IC50 (second compound 1 µM): 53.9 nM
- IC50 (second compound 3.16 µM): < 9.49 nM
- IC50 (second compound 10 µM): < 9.49 nM
- viability, T/C (second compound 0.0316 µM, first compound 0.00949 µM): 112%
- viability, T/C (second compound 0.0316 µM, first compound 0.03 µM): 88.8%
- viability, T/C (second compound 0.0316 µM, first compound 0.0949 µM): 75.1%
- viability, T/C (second compound 0.0316 µM, first compound 0.3 µM): 66.7%
- viability, T/C (second compound 0.0316 µM, first compound 0.949 µM): 62.1%
- viability, T/C (second compound 0.0316 µM, first compound 3 µM): 30.9%
- viability, T/C (second compound 0.1 µM, first compound 0.00949 µM): 86.6%
- viability, T/C (second compound 0.1 µM, first compound 0.03 µM): 89%
- viability, T/C (second compound 0.1 µM, first compound 0.0949 µM): 70.9%
- viability, T/C (second compound 0.1 µM, first compound 0.3 µM): 68.6%
- viability, T/C (second compound 0.1 µM, first compound 0.949 µM): 59.6%
- viability, T/C (second compound 0.1 µM, first compound 3 µM): 32.5%
- viability, T/C (second compound 0.316 µM, first compound 0.00949 µM): 65.8%
- viability, T/C (second compound 0.316 µM, first compound 0.03 µM): 67.9%
- viability, T/C (second compound 0.316 µM, first compound 0.0949 µM): 64.7%
- viability, T/C (second compound 0.316 µM, first compound 0.3 µM): 59.9%
- viability, T/C (second compound 0.316 µM, first compound 0.949 µM): 45.3%
- viability, T/C (second compound 0.316 µM, first compound 3 µM): 25.5%
- viability, T/C (second compound 1 µM, first compound 0.00949 µM): 50.9%
- viability, T/C (second compound 1 µM, first compound 0.03 µM): 56.4%
- viability, T/C (second compound 1 µM, first compound 0.0949 µM): 45.1%
- viability, T/C (second compound 1 µM, first compound 0.3 µM): 42.8%
- viability, T/C (second compound 1 µM, first compound 0.949 µM): 30.6%
- viability, T/C (second compound 1 µM, first compound 3 µM): 13.1%
- viability, T/C (second compound 3.16 µM, first compound 0.00949 µM): 46%
- viability, T/C (second compound 3.16 µM, first compound 0.03 µM): 51.4%
- viability, T/C (second compound 3.16 µM, first compound 0.0949 µM): 37.1%
- viability, T/C (second compound 3.16 µM, first compound 0.3 µM): 38.9%
- viability, T/C (second compound 3.16 µM, first compound 0.949 µM): 33%
- viability, T/C (second compound 3.16 µM, first compound 3 µM): 16.6%
- viability, T/C (second compound 10 µM, first compound 0.00949 µM): 45.1%
- viability, T/C (second compound 10 µM, first compound 0.03 µM): 48.4%
- viability, T/C (second compound 10 µM, first compound 0.0949 µM): 47.2%
- viability, T/C (second compound 10 µM, first compound 0.3 µM): 39.8%
- viability, T/C (second compound 10 µM, first compound 0.949 µM): 24.1%
- viability, T/C (second compound 10 µM, first compound 3 µM): 9.32%
